Literature values in paper PMC2962921 (Chembiochem : a European journal of chemical biology, 2008).
Where two headings read alike, the source gives them in different places.

Target: Gαi1*GDP

Row | Kd (binding to heterotrimeric inhibitory G protein Gαi1*GDP) [nM] | Kd (R6A peptide, competitor in the equilibrium competition) [nM] | Sequence
1 | 200 |  | DKLYWWEFL
2 |  | 60 | MSQTKRLDDQLYWWEYL [R6A]
